From patent US11931335B2, “Enhancing autophagy or increasing longevity by administration of urolithins or precursors thereof” (Amazentis SA, priority 2012, dated 2024)
“Also recorded” adds a separate entry of the source.

Assays:
[1] = tested on: undifferentiated C2C12 mouse myoblasts; assay: LC3B flow cytometry in C2C12 myoblasts; assay type: cell-based; conditions: for LC3B expression (LC3B-FITC fluorescence): 10 μM, 50 μM and 100 μM, 24 hours, FIG. 25
Procedure: To determine the ability of urolithin A to induce autophagy in mouse muscle cells, undifferentiated C2C12 mouse myoblasts were seeded in T25 flasks and incubated overnight. Cells were incubated in 5% CO2 at 37° C. These cells were treated with one of the urolithins-urolithin A (UA), urolithin B (UB), urolithin C (UC) or urolithin D (UD)—dissolved in a 0.1% solution of DMSO for 24 hours. In one experiment UA, UB, UC and UD were dosed at a concentration of 100 μM for C2C12 myoblast treatment. In a separate study, C2C12 myoblasts were incubated at increasing concentrations of UA (10 μM, 50 μM and 100 μM). For each experiment a control culture was treated with 0.1% DMSO for the same period and served as the untreated control. In the final 30 minutes of incubation, lysosome degradation inhibitor was added to the culture. The cells were then washed with phosphate buffer solution and then treated with a 1% solution of trypsin enzyme to remove the adhesive cells from the cell culture dishes. The cells were then treated with EMD Millipore selective permeabilization reagent to permeabilize the cells so as to make the internal cellular proteins accessible to antibody treatment. Cells were then incubated with antibody to LC3B according to kit protocol (EMD Millipore FlowCellect™ Autophagy LC3 Antibody-based Assay Kit (Cat no. FCCH100171)). The cells were then washed and resuspended in the kit assay buffer. The resulting cells were then run through a flow cytometer and LC3B-FITC fluorescence was quantified to measure the level of LC3B in C2C12 cells for the various treatments. When cells undergo autophagy their intracellular levels of LC3-II increase which is detected by this method. This autophagy can be detected by fluorescent antibody labeling of LC3B, which can be measured quantitatively using flow cytometry. An increase in cellular autophagy is reflected by an increasing signal in the histogram of LC3B FITC.

[2] = tested on: Human Aortic Endothelial Cells (HAOEC); assay: Autophagy western blot in human aortic endothelial cells; assay type: cell-based; conditions: 16 hours
Procedure: Human Aortic Endothelial Cells (HAOEC) are primary endothelial cells isolated from normal human aorta. They were sourced from Cell Applications Inc. (CAI), San Diego, USA and obtained cryopreserved at the second passage from the European Collection of Cell Cultures (ECACC). The cells were thawed and cultured with Endothelial Cell Growth Medium, provided by the ECACC, catalog number 06091509 (CAI No. 211-500), in a 37° C., 5% CO2 humidified incubator; media was changed 24 hours after thawing. Endothelial Cell Growth Medium was changed every other day until the cells reached 80% confluency. Cells were then subcultured into four 6-well dishes and after overnight incubation were treated with different concentrations of urolithin A, 10 μM, 20 μM, and 50 μM, or a DMSO control for a period of 16 hours, 3 wells per treatment. Control cells were treated with DMSO at an equivalent final concentration for the same period and served as the untreated control.
(§1) At the end of treatment, cells were lysed with RIPA buffer and applied to SDS-PAGE and analyzed by western blot. Protein expression levels were examined for autophagy-related proteins LC3-I and LC3-II (Cell Signaling antibody #4108), and p62 (Cell Signaling antibody #5114). The housekeeping protein, HSP90 (BD Transduction Laboratories antibody #610418) level was measured as a loading control.

[3] = tested on: liver of C57BL/6J mice; assay: Autophagy in liver of mice after oral urolithin A; assay type: in vivo, mouse; conditions: oral 55 mg/kg/d in chow, 8 weeks
Procedure: To determine the ability of urolithin A to induce autophagy in vivo, healthy 10-week-old C57BL/6J mice were treated with either a standard rodent diet or a diet containing urolithin A mixed with food to reach a dosing of 55 mg/kg/day delivered to the mice. Following 8 weeks of treatment with urolithin A, mice were sacrificed and the liver of each animal was surgically isolated. The isolated livers were then placed in lysis buffer and prepared for western blot analysis.
Protein expression levels were examined for autophagy related proteins LC3-I and LC3-II (Cell Signaling antibody #4108), p62 (Cell Signalling antibody #5114), AMPKα (Cell Signaling antibody #2603), and p-AMPKα(Cell Signaling antibody #2531). The housekeeping protein, HSP90 (BD Transduction Laboratories antibody #610418) level was measured as a loading control. Each lane in the Western blot represents a protein sample for the liver of a single mouse, to permit observation of the effects aver a number of treated animals.

[4] = tested on: mouse C2C12 myoblasts; assay: Autophagy western blot in C2C12 myoblasts; assay type: cell-based; conditions: 10 μM, 20 μM, and 50 μM, 16 hours
Procedure: C2C12 myoblast were cultured in Dulbecco's modified Eagle's medium (DMEM) including 4.5 g/L glucose, 20% fetal calf serum, and 50 μg/mL gentamicin. Urolithin A was dissolved in DMSO in a stock solution of […]. Cells were treated at final concentrations of urolithin A of 10 μM, 20 μM, and 50 μM for a period 16 hours. Control cells were treated with DMSO at an equivalent final concentration for the same period and served as the untreated control.
as §1, with “#4108),” for “#4108), and”, “#5114), AMPKα (Cell Signaling antibody #2603), and p-AMPKα(Cell Signaling antibody #2531).” for “#5114).”, “R-actin (Cell Signaling Antibody #4967)” for “HSP90 (BD Transduction Laboratories antibody #610418)”

O=c1oc2cc(O)ccc2c2ccc(O)cc12 [Urolithin A, urolithin A]
LC3B expression (LC3B-FITC fluorescence) [1]: dose dependent | LC3B expression (LC3B-FITC fluorescence) ([1]; listed as UA): dose response | LC3B signal (shift of the histogram) ([1]; 100 μM, 24 hrs, FIG. 26, listed as UA): increasing signal of LC3B; also recorded: increase in autophagy | levels of p62 ([2]; 10 μM, 20 μM, and 50 μM): decrease | ratio of LC3-II to LC3-I, induction ([2]; 50 μM of urolithin A, FIG. 18): ≤ 3 fold | p62 protein levels [3]: decreased | phosphorylated AMPKα / ratio of p-AMPKα/AMPKα ([3]; 55 mg/kg/day): increased levels | ratio of LC3-II to LC3-I ([3]; FIG. 19, 55 mg/kg/day): increased | increase in autophagy over control untreated mice based on the ratio of LC3-II/LC3-I ([3]; average): approximately 400% | levels of p62 [4]: decrease | ratio of pAMPKα/AMPKα [4]: increasing several fold | ratio of LC3-II to LC3-I ([4]; FIG. 16): dose-dependent increase
